In the supplement of paper PMC10307832:

Experiments:
Experiment in all cases: relative viability (nuclei count vs DMSO), 5 days (fraction); higher = more cells survive
Dasatinib + Pictilisib = compound: Cc1nc(Nc2ncc(C(=O)Nc3c(C)cccc3Cl)s2)cc(N2CCN(CCO)CC2)n1 [Dasatinib] + CS(=O)(=O)N1CCN(Cc2cc3nc(-c4cccc5[nH]ncc45)nc(N4CCOCC4)c3s2)CC1 [Pictilisib] (partner 1 µM)
Procedure, shortened: (§1)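 For relative viability, nuclei counts in treated wells were divided by those in vehicle wells. Lung cancer cell lines had been pin-tool dosed in 1536-well plates the day after seeding and cultured for 5 days, then fixed and stained in one step (final 0.05% Triton X-100, 1% formaldehyde, 1 ug/ml Hoechst) and imaged at 4×. Doses were one drug alone or a fixed anchor-drug dose plus five library-drug doses (not always all listed) in √10 steps, and values are duplicate-plate medians.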

Dasatinib + Trametinib = compound: Cc1nc(Nc2ncc(C(=O)Nc3c(C)cccc3Cl)s2)cc(N2CCN(CCO)CC2)n1 [Dasatinib] + CC(=O)Nc1cccc(-n2c(=O)n(C3CC3)c(=O)c3c(Nc4ccc(I)cc4F)n(C)c(=O)c(C)c32)c1 [Trametinib] (partner 0.02 µM)
Procedure, shortened: as §1

XMD13-2 + Dasatinib = compound: C1CC1C(=O)NC2=NNC3=C2C=CC(=C3)C4=CC(=CC=C4)C(=O)NC5CC5 [XMD13-2] + Cc1nc(Nc2ncc(C(=O)Nc3c(C)cccc3Cl)s2)cc(N2CCN(CCO)CC2)n1 [Dasatinib] (partner 0.075 µM)
Procedure, shortened: as §1

[1] = compound: Cc1ccc(C(=O)Nc2cccc(C(F)(F)F)c2)cc1Nc1cncc(C(N)=O)c1 [ALW-II-49-7] + CC(=O)c1c(C)c2cnc(Nc3ccc(N4CCNCC4)cn3)nc2n(C2CCCC2)c1=O [Palbociclib] (partner 0.5 µM)
Procedure, shortened: as §1

Cell Line: EKVX
- relative viability (Dasatinib + Pictilisib; first compound 0.005 µM): 0.449
- relative viability (Dasatinib + Pictilisib; first compound 0.01581 µM): 0.231
- relative viability (Dasatinib + Pictilisib; first compound 0.05 µM): 0.338
- relative viability (Dasatinib + Pictilisib; first compound 0.1581 µM): 0.181
- relative viability (Dasatinib + Pictilisib; first compound 0.5 µM): 0.101
- relative viability (Dasatinib + Trametinib; first compound 0.005 µM): 0.345
- relative viability (Dasatinib + Trametinib; first compound 0.01581 µM): 0.306
- relative viability (Dasatinib + Trametinib; first compound 0.05 µM): 0.254
- relative viability (Dasatinib + Trametinib; first compound 0.1581 µM): 0.178
- relative viability (Dasatinib + Trametinib; first compound 0.5 µM): 0.114
- relative viability (XMD13-2 + Dasatinib; first compound 0.05 µM): 0.591
- relative viability (XMD13-2 + Dasatinib; first compound 0.1581 µM): 0.445
- relative viability (XMD13-2 + Dasatinib; first compound 0.5 µM): 0.548
- relative viability (XMD13-2 + Dasatinib; first compound 1.581 µM): 0.594
- relative viability (XMD13-2 + Dasatinib; first compound 5 µM): 0.497
- relative viability ([1]; first compound 0.08 µM): 0.454
- relative viability ([1]; first compound 0.253 µM): 0.344
- relative viability ([1]; first compound 0.8 µM): 0.413
- relative viability ([1]; first compound 2.53 µM): 0.278
- relative viability ([1]; first compound 8 µM): 0.359

Cell Line: HCC-44
- relative viability (Dasatinib + Pictilisib; first compound 0.005 µM): 0.517
- relative viability (Dasatinib + Pictilisib; first compound 0.01581 µM): 0.392
- relative viability (Dasatinib + Pictilisib; first compound 0.05 µM): 0.39
- relative viability (Dasatinib + Pictilisib; first compound 0.1581 µM): 0.291
- relative viability (Dasatinib + Pictilisib; first compound 0.5 µM): 0.148
- relative viability (Dasatinib + Trametinib; first compound 0.005 µM): 1.11
- relative viability (Dasatinib + Trametinib; first compound 0.01581 µM): 0.94
- relative viability (Dasatinib + Trametinib; first compound 0.05 µM): 1.16
- relative viability (Dasatinib + Trametinib; first compound 0.1581 µM): 1.17
- relative viability (Dasatinib + Trametinib; first compound 0.5 µM): 0.574
- relative viability ([1]; first compound 0.08 µM): 0.961
- relative viability ([1]; first compound 0.253 µM): 1.02
- relative viability ([1]; first compound 0.8 µM): 0.972
- relative viability ([1]; first compound 2.53 µM): 0.871
- relative viability ([1]; first compound 8 µM): 0.864

Cell Line: NCI-H596
- relative viability (Dasatinib + Pictilisib; first compound 0.005 µM): 0.349
- relative viability (Dasatinib + Pictilisib; first compound 0.01581 µM): 0.348
- relative viability (Dasatinib + Pictilisib; first compound 0.05 µM): 0.312
- relative viability (Dasatinib + Pictilisib; first compound 0.1581 µM): 0.475
- relative viability (Dasatinib + Pictilisib; first compound 0.5 µM): 0.118
- relative viability (Dasatinib + Trametinib; first compound 0.005 µM): 0.7
- relative viability (Dasatinib + Trametinib; first compound 0.01581 µM): 0.578
- relative viability (Dasatinib + Trametinib; first compound 0.05 µM): 0.56
- relative viability (Dasatinib + Trametinib; first compound 0.1581 µM): 0.431
- relative viability (Dasatinib + Trametinib; first compound 0.5 µM): 0.323
- relative viability (XMD13-2 + Dasatinib; first compound 0.05 µM): 0.683
- relative viability (XMD13-2 + Dasatinib; first compound 0.1581 µM): 0.571
- relative viability (XMD13-2 + Dasatinib; first compound 0.5 µM): 0.578
- relative viability (XMD13-2 + Dasatinib; first compound 1.581 µM): 0.713
- relative viability (XMD13-2 + Dasatinib; first compound 5 µM): 0.664

Cell Line: Calu-6
- relative viability (Dasatinib + Pictilisib; first compound 0.005 µM): 0.732
- relative viability (Dasatinib + Pictilisib; first compound 0.01581 µM): 0.65
- relative viability (Dasatinib + Pictilisib; first compound 0.05 µM): 0.742
- relative viability (Dasatinib + Pictilisib; first compound 0.1581 µM): 0.604
- relative viability (Dasatinib + Pictilisib; first compound 0.5 µM): 0.527

Cell Line: NCI-H1623
- relative viability (XMD13-2 + Dasatinib; first compound 0.05 µM): 0.533
- relative viability (XMD13-2 + Dasatinib; first compound 0.1581 µM): 0.52
- relative viability (XMD13-2 + Dasatinib; first compound 0.5 µM): 0.467
- relative viability (XMD13-2 + Dasatinib; first compound 1.581 µM): 0.526
- relative viability (XMD13-2 + Dasatinib; first compound 5 µM): 0.585

Cell Line: NCI-H1299
- relative viability (Dasatinib + Pictilisib; first compound 0.005 µM): 0.676
- relative viability (Dasatinib + Pictilisib; first compound 0.01581 µM): 0.359
- relative viability (Dasatinib + Pictilisib; first compound 0.05 µM): 0.313
- relative viability (Dasatinib + Pictilisib; first compound 0.1581 µM): 0.091
- relative viability (Dasatinib + Pictilisib; first compound 0.5 µM): 0.0817

Cell Line: NCI-H1703
- relative viability (Dasatinib + Pictilisib; first compound 0.005 µM): 0.2
- relative viability (Dasatinib + Pictilisib; first compound 0.01581 µM): 0.195
- relative viability (Dasatinib + Pictilisib; first compound 0.05 µM): 0.203
- relative viability (Dasatinib + Pictilisib; first compound 0.1581 µM): 0.179
- relative viability (Dasatinib + Pictilisib; first compound 0.5 µM): 0.169

Cell Line: NCI-H522
- relative viability (Dasatinib + Trametinib; first compound 0.005 µM): 0.767
- relative viability (Dasatinib + Trametinib; first compound 0.01581 µM): 0.63
- relative viability (Dasatinib + Trametinib; first compound 0.05 µM): 0.668
- relative viability (Dasatinib + Trametinib; first compound 0.1581 µM): 0.591
- relative viability (Dasatinib + Trametinib; first compound 0.5 µM): 0.599
- relative viability (XMD13-2 + Dasatinib; first compound 0.05 µM): 0.81
- relative viability (XMD13-2 + Dasatinib; first compound 0.1581 µM): 0.891
- relative viability (XMD13-2 + Dasatinib; first compound 0.5 µM): 0.94
- relative viability (XMD13-2 + Dasatinib; first compound 1.581 µM): 0.821
- relative viability (XMD13-2 + Dasatinib; first compound 5 µM): 0.792
- relative viability ([1]; first compound 0.08 µM): 0.962
- relative viability ([1]; first compound 0.253 µM): 0.921
- relative viability ([1]; first compound 0.8 µM): 1.2
- relative viability ([1]; first compound 2.53 µM): 1.04
- relative viability ([1]; first compound 8 µM): 0.979

Cell Line: ABC-1
- relative viability (Dasatinib + Pictilisib; first compound 0.005 µM): 0.937
- relative viability (Dasatinib + Pictilisib; first compound 0.01581 µM): 0.625
- relative viability (Dasatinib + Pictilisib; first compound 0.05 µM): 0.659
- relative viability (Dasatinib + Pictilisib; first compound 0.1581 µM): 0.644
- relative viability (Dasatinib + Pictilisib; first compound 0.5 µM): 0.506
- relative viability (XMD13-2 + Dasatinib; first compound 0.05 µM): 0.53
- relative viability (XMD13-2 + Dasatinib; first compound 0.1581 µM): 0.542
- relative viability (XMD13-2 + Dasatinib; first compound 0.5 µM): 0.599
- relative viability (XMD13-2 + Dasatinib; first compound 1.581 µM): 0.51
- relative viability (XMD13-2 + Dasatinib; first compound 5 µM): 0.426
- relative viability ([1]; first compound 0.08 µM): 0.48
- relative viability ([1]; first compound 0.253 µM): 0.647
- relative viability ([1]; first compound 0.8 µM): 0.59
- relative viability ([1]; first compound 2.53 µM): 0.665
- relative viability ([1]; first compound 8 µM): 0.711

Cell Line: IA-LM
- relative viability (Dasatinib + Pictilisib; first compound 0.005 µM): 0.416
- relative viability (Dasatinib + Pictilisib; first compound 0.01581 µM): 0.312
- relative viability (Dasatinib + Pictilisib; first compound 0.05 µM): 0.378
- relative viability (Dasatinib + Pictilisib; first compound 0.1581 µM): 0.276
- relative viability (Dasatinib + Pictilisib; first compound 0.5 µM): 0.257

Cell Line: SW 900
- relative viability (Dasatinib + Trametinib; first compound 0.005 µM): 0.783
- relative viability (Dasatinib + Trametinib; first compound 0.01581 µM): 0.474
- relative viability (Dasatinib + Trametinib; first compound 0.05 µM): 0.405
- relative viability (Dasatinib + Trametinib; first compound 0.1581 µM): 0.393
- relative viability (Dasatinib + Trametinib; first compound 0.5 µM): 0.188
- relative viability (XMD13-2 + Dasatinib; first compound 0.05 µM): 0.616
- relative viability (XMD13-2 + Dasatinib; first compound 0.1581 µM): 0.537
- relative viability (XMD13-2 + Dasatinib; first compound 0.5 µM): 0.601
- relative viability (XMD13-2 + Dasatinib; first compound 1.581 µM): 0.578
- relative viability (XMD13-2 + Dasatinib; first compound 5 µM): 0.652
- relative viability ([1]; first compound 0.08 µM): 0.475
- relative viability ([1]; first compound 0.253 µM): 0.577
- relative viability ([1]; first compound 2.53 µM): 0.573
- relative viability ([1]; first compound 8 µM): 0.658

Cell Line: NCI-H1563
- relative viability (Dasatinib + Pictilisib; first compound 0.005 µM): 0.66
- relative viability (Dasatinib + Pictilisib; first compound 0.01581 µM): 0.564
- relative viability (Dasatinib + Pictilisib; first compound 0.05 µM): 0.584
- relative viability (Dasatinib + Pictilisib; first compound 0.1581 µM): 0.597
- relative viability (Dasatinib + Pictilisib; first compound 0.5 µM): 0.558
- relative viability (XMD13-2 + Dasatinib; first compound 0.05 µM): 0.485
- relative viability (XMD13-2 + Dasatinib; first compound 0.1581 µM): 0.435
- relative viability (XMD13-2 + Dasatinib; first compound 0.5 µM): 0.43
- relative viability (XMD13-2 + Dasatinib; first compound 1.581 µM): 0.436
- relative viability (XMD13-2 + Dasatinib; first compound 5 µM): 0.506

Cell Line: NCI-H2342
- relative viability (Dasatinib + Trametinib; first compound 0.005 µM): 0.662
- relative viability (Dasatinib + Trametinib; first compound 0.01581 µM): 0.722
- relative viability (Dasatinib + Trametinib; first compound 0.05 µM): 0.774
- relative viability (Dasatinib + Trametinib; first compound 0.1581 µM): 0.515
- relative viability (Dasatinib + Trametinib; first compound 0.5 µM): 0.294
- relative viability (XMD13-2 + Dasatinib; first compound 0.05 µM): 0.334
- relative viability (XMD13-2 + Dasatinib; first compound 0.1581 µM): 0.357
- relative viability (XMD13-2 + Dasatinib; first compound 0.5 µM): 0.334
- relative viability (XMD13-2 + Dasatinib; first compound 1.581 µM): 0.313
- relative viability (XMD13-2 + Dasatinib; first compound 5 µM): 0.349
- relative viability ([1]; first compound 0.08 µM): 0.496
- relative viability ([1]; first compound 0.253 µM): 0.541
- relative viability ([1]; first compound 0.8 µM): 0.515
- relative viability ([1]; first compound 2.53 µM): 0.499
- relative viability ([1]; first compound 8 µM): 0.488
